Experimental data reported in PMC7180948, “New Insights into 4-Anilinoquinazolines as Inhibitors of Cardiac Troponin I–Interacting Kinase (TNNi3K)” (Molecules, 2020).

Legend:
[1] = target: PLK2 (Homo sapiens, UniProt Q9NYY3); assay: biochemical; set-up: KINOMEscan competition binding panel (Eurofins DiscoverX), single concentration, % inhibition; conditions: read-out: 7 at 1 µM % inhibition
Summary of the method: (§1)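 KINOMEscan selectivity screen; >400 human kinases; compound at 1 µM, single concentration.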

[2] = target: KIT(V559D,V654A) (Homo sapiens, UniProt P10721, V559D/V654A); assay: biochemical; set-up: KINOMEscan competition binding panel (Eurofins DiscoverX), single concentration, % inhibition; conditions: read-out: 7 at 1 µM % inhibition
Summary of the method: as §1

[3] = target: T1, CDK11 (Homo sapiens, UniProt Q9BWU1); assay: biochemical; set-up: KINOMEscan competition binding panel (Eurofins DiscoverX), single concentration, % inhibition; conditions: read-out: 7 at 1 µM % inhibition
T1 construct: gene CDK19
Summary of the method: as §1

[4] = target: PAK3 (Homo sapiens, UniProt O75914); assay: biochemical; set-up: KINOMEscan competition binding panel (Eurofins DiscoverX), single concentration, % inhibition; conditions: read-out: 7 at 1 µM % inhibition
Summary of the method: as §1

[5] = target: HCK (Homo sapiens, UniProt P08631); assay: biochemical; set-up: KINOMEscan competition binding panel (Eurofins DiscoverX), single concentration, % inhibition; conditions: read-out: 7 at 1 µM % inhibition
Summary of the method: as §1

[6] = target: T2, MST2 (Homo sapiens, UniProt Q13188); assay: biochemical; set-up: KINOMEscan competition binding panel (Eurofins DiscoverX), single concentration, % inhibition; conditions: read-out: 7 at 1 µM % inhibition
T2 construct: gene STK3
Summary of the method: as §1

[7] = target: SYK (Homo sapiens, UniProt P43405); assay: biochemical; set-up: KINOMEscan competition binding panel (Eurofins DiscoverX), single concentration, % inhibition; conditions: read-out: 7 at 1 µM % inhibition
Summary of the method: as §1

[8] = target: T3, PAK7 (Homo sapiens, UniProt Q9P286); assay: biochemical; set-up: KINOMEscan competition binding panel (Eurofins DiscoverX), single concentration, % inhibition; conditions: read-out: 7 at 1 µM % inhibition
T3 construct: gene PAK5
Summary of the method: as §1

[9] = target: GAK (Homo sapiens, UniProt O14976); assay: KINOMEscan at […], single concentration; format: binding
[10] = target: PDGFRB (Homo sapiens, UniProt P09619); assay: biochemical; set-up: KINOMEscan competition binding panel (Eurofins DiscoverX), single concentration, percent inhibition; conditions: read-out: 15 at 1 µM % inhibition
Description: (§2) KinomeScan® Assay on 7 and 15 was performed as previously described by EuroFins DiscoverX [24]. GSK114 (7) and 15 were submitted for a KINOMEscan® assay to explore the selectivity profile across >400 human kinases at a compound concentration of 1 µM. […] GSK114 (7) is a narrow-spectrum TNNi3K inhibitor but has some potent off-targets including GAK which has been previously reported for this chemotype. […] If utilized together this set of compounds could be useful to investigate TNNi3K biology.

[11] = target: MYO3A (Homo sapiens, UniProt Q8NEV4); assay: biochemical; set-up: KINOMEscan competition binding panel (Eurofins DiscoverX), single concentration, percent inhibition; conditions: read-out: 15 at 1 µM % inhibition
Description: as §2

[12] = target: BRAF (Homo sapiens, UniProt P15056); assay: biochemical; set-up: KINOMEscan competition binding panel (Eurofins DiscoverX), single concentration, percent inhibition; conditions: read-out: 15 at 1 µM % inhibition
Description: as §2

[13] = target: T4, ABL1(F317I)-phosphorylated (Homo sapiens, UniProt P00519, F317I); assay: biochemical; set-up: KINOMEscan competition binding panel (Eurofins DiscoverX), single concentration, percent inhibition; conditions: read-out: 15 at 1 µM % inhibition
T4 construct: phosphorylated
Description: as §2

[14] = target: PRKCI (Homo sapiens, UniProt P41743); assay: biochemical; set-up: KINOMEscan competition binding panel (Eurofins DiscoverX), single concentration, percent inhibition; conditions: read-out: 15 at 1 µM % inhibition
Description: as §2

[15] = target: DAPK3 (Homo sapiens, UniProt O43293); assay: biochemical; set-up: KINOMEscan competition binding panel (Eurofins DiscoverX), single concentration, percent inhibition; conditions: read-out: 15 at 1 µM % inhibition
Description: as §2

[16] = target: TIE1 (Homo sapiens, UniProt P35590); assay: biochemical; set-up: KINOMEscan competition binding panel (Eurofins DiscoverX), single concentration, percent inhibition; conditions: read-out: 15 at 1 µM % inhibition
Description: as §2

[17] = target: EPHB1 (Homo sapiens, UniProt P54762); assay: biochemical; set-up: KINOMEscan competition binding panel (Eurofins DiscoverX), single concentration, percent inhibition; conditions: read-out: 15 at 1 µM % inhibition
Description: as §2

[18] = target: INSRR (Homo sapiens, UniProt P14616); assay: biochemical; set-up: KINOMEscan competition binding panel (Eurofins DiscoverX), single concentration, percent inhibition; conditions: read-out: 15 at 1 µM % inhibition
Description: as §2

[19] = target: ALK(L1196M) (Homo sapiens, UniProt Q9UM73, L1196M); assay: biochemical; set-up: KINOMEscan competition binding panel (Eurofins DiscoverX), single concentration, percent inhibition; conditions: read-out: 15 at 1 µM % inhibition
Description: as §2

[20] = target: CLK1 (Homo sapiens, UniProt P49759); assay: biochemical; set-up: KINOMEscan competition binding panel (Eurofins DiscoverX), single concentration, percent inhibition; conditions: read-out: 15 at 1 µM % inhibition
Description: as §2

[21] = target: T5, ABL1(F317L)-phosphorylated (Homo sapiens, UniProt P00519, F317L); assay: biochemical; set-up: KINOMEscan competition binding panel (Eurofins DiscoverX), single concentration, percent inhibition; conditions: read-out: 15 at 1 µM % inhibition
T5 construct: phosphorylated
Description: as §2

[22] = target: T6, ABL1(Q252H)-nonphosphorylated (Homo sapiens, UniProt P00519, Q252H); assay: biochemical; set-up: KINOMEscan competition binding panel (Eurofins DiscoverX), single concentration, percent inhibition; conditions: read-out: 15 at 1 µM % inhibition
T6 construct: nonphosphorylated
Description: as §2

[23] = target: T7, ABL1(E255K)-phosphorylated (Homo sapiens, UniProt P00519, E255K); assay: biochemical; set-up: KINOMEscan competition binding panel (Eurofins DiscoverX), single concentration, percent inhibition; conditions: read-out: 15 at 1 µM % inhibition
T7 construct: phosphorylated
Description: as §2

[24] = target: PIK3CD (Homo sapiens, UniProt O00329); assay: biochemical; set-up: KINOMEscan competition binding panel (Eurofins DiscoverX), single concentration, percent inhibition; conditions: read-out: 15 at 1 µM % inhibition
Description: as §2

T3 sequence (Q9P286 whole entry): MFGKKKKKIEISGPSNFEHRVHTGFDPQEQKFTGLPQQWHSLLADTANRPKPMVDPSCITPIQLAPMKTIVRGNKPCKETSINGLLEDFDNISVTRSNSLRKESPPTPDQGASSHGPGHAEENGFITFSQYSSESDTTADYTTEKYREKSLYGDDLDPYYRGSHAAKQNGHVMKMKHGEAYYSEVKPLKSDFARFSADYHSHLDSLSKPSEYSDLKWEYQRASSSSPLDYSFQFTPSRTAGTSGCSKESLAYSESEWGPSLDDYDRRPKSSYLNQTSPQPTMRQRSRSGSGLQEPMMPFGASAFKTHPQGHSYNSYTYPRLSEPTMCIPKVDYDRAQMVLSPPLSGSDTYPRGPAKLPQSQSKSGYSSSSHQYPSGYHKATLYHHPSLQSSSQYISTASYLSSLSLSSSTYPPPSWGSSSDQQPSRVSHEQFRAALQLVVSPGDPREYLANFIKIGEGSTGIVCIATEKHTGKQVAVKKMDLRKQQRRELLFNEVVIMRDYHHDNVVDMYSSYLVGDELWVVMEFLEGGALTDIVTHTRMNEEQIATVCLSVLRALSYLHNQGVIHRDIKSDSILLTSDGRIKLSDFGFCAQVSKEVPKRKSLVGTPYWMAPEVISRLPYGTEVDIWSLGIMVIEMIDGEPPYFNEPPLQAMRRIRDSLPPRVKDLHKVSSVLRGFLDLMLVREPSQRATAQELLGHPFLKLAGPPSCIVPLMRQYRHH
Chain of HCK (P08631 whole entry): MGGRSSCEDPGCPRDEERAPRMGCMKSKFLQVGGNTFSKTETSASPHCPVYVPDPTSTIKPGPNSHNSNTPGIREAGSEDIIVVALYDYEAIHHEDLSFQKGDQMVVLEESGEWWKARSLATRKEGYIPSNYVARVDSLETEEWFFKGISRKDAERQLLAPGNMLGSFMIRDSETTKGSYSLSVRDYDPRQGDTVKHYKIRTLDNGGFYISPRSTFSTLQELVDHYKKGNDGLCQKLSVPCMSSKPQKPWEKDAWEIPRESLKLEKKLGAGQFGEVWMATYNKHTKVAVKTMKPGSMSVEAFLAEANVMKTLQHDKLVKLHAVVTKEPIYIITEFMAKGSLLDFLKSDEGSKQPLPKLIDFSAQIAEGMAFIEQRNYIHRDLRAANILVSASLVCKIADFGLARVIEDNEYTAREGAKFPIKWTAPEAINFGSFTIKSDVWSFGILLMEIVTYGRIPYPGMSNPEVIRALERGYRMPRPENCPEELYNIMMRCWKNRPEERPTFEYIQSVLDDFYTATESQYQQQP
Chain of CLK1 (P49759 whole entry): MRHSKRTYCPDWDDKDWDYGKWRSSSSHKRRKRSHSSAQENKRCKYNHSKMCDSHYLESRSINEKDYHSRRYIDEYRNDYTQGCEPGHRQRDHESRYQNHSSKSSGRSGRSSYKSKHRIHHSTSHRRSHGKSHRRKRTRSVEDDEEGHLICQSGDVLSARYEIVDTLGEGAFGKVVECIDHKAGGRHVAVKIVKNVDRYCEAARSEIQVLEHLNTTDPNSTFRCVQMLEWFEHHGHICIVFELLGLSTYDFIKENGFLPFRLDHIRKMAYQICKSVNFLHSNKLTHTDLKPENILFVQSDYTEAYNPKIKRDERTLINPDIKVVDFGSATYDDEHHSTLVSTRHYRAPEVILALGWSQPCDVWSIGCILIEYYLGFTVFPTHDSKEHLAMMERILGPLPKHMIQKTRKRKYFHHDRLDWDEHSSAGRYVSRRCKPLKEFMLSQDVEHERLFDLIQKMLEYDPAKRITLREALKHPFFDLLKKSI
Chain of PRKCI (P41743 whole entry): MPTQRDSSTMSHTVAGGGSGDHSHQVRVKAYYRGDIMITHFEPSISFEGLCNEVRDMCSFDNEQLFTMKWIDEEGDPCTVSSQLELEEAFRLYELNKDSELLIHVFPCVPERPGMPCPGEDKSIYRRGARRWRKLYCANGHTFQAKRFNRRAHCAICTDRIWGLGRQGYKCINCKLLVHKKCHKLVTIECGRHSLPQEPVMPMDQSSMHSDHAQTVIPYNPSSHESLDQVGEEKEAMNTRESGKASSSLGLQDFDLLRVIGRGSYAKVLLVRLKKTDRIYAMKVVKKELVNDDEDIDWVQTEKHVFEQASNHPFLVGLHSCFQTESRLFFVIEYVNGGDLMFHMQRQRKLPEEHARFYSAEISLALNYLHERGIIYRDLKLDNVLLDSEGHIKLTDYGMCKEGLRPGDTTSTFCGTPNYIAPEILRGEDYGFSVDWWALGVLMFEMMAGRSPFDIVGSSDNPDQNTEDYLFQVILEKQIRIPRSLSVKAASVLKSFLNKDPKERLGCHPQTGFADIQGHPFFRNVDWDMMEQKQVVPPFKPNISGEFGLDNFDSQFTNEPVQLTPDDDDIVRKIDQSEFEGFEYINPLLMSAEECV
T1 sequence (Q9BWU1 whole entry): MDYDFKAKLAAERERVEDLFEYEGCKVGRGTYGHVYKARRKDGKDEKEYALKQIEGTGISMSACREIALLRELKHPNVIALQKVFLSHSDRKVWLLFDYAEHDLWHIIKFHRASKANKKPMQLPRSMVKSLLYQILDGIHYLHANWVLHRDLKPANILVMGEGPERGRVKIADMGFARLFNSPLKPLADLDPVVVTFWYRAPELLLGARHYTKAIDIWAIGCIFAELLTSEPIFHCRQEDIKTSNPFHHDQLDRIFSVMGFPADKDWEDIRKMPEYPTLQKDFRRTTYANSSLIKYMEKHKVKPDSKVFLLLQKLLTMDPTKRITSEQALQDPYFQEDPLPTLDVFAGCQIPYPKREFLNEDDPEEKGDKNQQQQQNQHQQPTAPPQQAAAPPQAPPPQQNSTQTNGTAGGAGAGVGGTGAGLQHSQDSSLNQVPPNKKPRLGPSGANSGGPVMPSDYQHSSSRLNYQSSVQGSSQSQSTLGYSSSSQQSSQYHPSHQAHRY
Chain of ALK(L1196M) (Q9UM73 whole entry L1196M): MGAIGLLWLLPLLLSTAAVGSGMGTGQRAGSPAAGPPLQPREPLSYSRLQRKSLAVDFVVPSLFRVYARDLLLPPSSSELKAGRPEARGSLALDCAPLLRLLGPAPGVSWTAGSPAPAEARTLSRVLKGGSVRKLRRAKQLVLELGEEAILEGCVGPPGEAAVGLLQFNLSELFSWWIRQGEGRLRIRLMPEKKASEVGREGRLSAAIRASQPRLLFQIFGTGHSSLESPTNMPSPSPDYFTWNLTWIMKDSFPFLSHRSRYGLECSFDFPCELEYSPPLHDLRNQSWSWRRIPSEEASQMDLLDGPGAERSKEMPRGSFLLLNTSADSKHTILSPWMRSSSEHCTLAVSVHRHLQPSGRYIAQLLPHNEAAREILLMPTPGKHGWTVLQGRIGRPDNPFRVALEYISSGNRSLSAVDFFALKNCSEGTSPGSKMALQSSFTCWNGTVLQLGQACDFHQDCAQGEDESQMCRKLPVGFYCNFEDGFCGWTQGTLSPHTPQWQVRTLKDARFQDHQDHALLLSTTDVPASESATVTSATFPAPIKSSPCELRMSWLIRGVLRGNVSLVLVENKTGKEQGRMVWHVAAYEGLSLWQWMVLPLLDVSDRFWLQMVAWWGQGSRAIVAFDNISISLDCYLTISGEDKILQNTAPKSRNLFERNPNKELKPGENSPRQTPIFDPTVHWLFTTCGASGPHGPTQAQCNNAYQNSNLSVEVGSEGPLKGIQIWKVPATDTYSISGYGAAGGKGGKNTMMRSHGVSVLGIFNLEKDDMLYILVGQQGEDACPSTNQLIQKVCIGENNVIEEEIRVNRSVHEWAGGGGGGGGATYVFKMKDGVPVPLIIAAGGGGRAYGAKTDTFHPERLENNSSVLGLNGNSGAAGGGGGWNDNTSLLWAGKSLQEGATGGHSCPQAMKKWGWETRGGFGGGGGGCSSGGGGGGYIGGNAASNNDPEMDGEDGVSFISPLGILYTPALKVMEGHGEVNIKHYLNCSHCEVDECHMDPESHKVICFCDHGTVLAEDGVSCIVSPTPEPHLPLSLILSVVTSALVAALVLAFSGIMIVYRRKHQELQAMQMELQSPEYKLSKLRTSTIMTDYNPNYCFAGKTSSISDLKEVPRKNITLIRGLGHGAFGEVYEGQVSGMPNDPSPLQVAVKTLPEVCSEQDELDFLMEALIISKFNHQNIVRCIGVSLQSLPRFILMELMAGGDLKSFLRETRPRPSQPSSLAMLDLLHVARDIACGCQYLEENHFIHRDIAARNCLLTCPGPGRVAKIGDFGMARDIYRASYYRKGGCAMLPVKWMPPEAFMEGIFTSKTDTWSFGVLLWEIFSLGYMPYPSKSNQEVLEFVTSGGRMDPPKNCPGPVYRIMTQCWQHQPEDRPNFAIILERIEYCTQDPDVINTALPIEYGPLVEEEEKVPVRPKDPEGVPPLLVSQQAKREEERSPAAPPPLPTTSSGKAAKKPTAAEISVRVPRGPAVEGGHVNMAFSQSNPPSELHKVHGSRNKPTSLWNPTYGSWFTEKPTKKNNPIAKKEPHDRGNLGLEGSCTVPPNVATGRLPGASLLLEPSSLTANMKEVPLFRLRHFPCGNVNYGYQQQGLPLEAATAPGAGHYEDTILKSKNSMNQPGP
T2 sequence (Q13188 whole entry): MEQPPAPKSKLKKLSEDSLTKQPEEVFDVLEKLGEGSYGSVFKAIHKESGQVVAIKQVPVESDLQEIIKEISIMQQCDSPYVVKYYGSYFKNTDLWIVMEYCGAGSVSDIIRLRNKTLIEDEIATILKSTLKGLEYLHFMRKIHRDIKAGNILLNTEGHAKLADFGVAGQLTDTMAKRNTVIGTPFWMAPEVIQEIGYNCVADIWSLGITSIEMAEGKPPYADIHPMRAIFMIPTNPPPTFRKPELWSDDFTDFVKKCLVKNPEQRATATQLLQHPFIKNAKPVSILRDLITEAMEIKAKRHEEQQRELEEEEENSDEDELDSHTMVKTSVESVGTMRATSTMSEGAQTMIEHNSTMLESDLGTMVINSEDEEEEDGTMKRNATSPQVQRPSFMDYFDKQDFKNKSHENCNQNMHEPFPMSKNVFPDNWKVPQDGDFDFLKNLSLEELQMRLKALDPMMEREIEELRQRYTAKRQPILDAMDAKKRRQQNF

Compound `CNS(=O)(=O)c1ccc(N(C)C)c(Nc2ncnc3cc(OC)c(OC)cc23)c1` [compound 7, 3-((6,7-dimethoxyquinazolin-4-yl)amino)-4-(dimethylamino)-N-methylbenzenesulfonamide] has an inhibition at 1 µM [1] of 13%, an inhibition at 1 µM [2] of 0% and an inhibition at 1 µM [3] of 0%. The inhibition at 1 µM [4] was 54%, the inhibition at 1 µM [5] was 11% and the inhibition at 1 µM [6] was 0%. The inhibition at 1 µM [7] was 0%, the inhibition at 1 µM [8] was 0% and the inhibition at 1 µM [9] was 92%.
Work on `CNS(=O)(=O)c1ccc(N(C)C)c(Nc2nc(C)nc3cc(OC)c(OC)cc23)c1` [compound 15, 3-((6,7-dimethoxy-2-methylquinazolin-4-yl)amino)-4-(dimethylamino)-N-methylbenzenesulfonamide] yielded an inhibition at 1 µM [10] of 10%, an inhibition at 1 µM [11] of 0% and an inhibition at 1 µM [12] of 20%. The inhibition at 1 µM [13] was 22%, the inhibition at 1 µM [14] was 25% and the inhibition at 1 µM [15] was 0%. It also gave an inhibition at 1 µM [16] of 11%, an inhibition at 1 µM [17] of 0% and an inhibition at 1 µM [18] of 22%. The inhibition at 1 µM [19] was 12%, the inhibition at 1 µM [20] was 0% and the inhibition at 1 µM [21] was 0%. For the same compound, the inhibition at 1 µM [22] was 33%, the inhibition at 1 µM [23] was 4% and the inhibition at 1 µM [24] was 37%.
